Experimental data published in patent US8759303B2, “Compositions and methods for treating myelodysplastic syndrome” (Telik, Inc., priority 2010, dated 2014).
Where two headings read alike, the source gives them in different places.

Test system: patients with IPSS Low to Intermediate-1 Risk Myelodysplastic Syndrome
Conditions: for patients achieving significant RBC transfusion reduction: no prior DMTI, five of 11 patients
Procedure: Eighty-seven patients were randomized and treated at 23 investigational sites. After initial dose ranging in 14 patients, two dose levels were selected for further study. Subsequently, 37 patients were treated at 3 grams daily for two weeks followed by a one week rest period, and 36 patients were treated at 2 grams daily for three weeks followed by a one week rest period. The data on these 73 patients was pooled for this preliminary analysis.

Q: What does the source list for `CCOC(=O)[C@@H](N)CCC(=O)N[C@@H](CSCc1ccccc1)C(=O)N[C@@H](C(=O)OCC)c1ccccc1` [Telintra, ethyl (2S)-2-amino-5-[[(2R)-3-benzylsulfanyl-1-[[(1R)-2-ethoxy-2-oxo-1-phenylethyl]amino]-1-oxopropan-2-yl]amino]-5-oxopentanoate]?
A: increase in response rate, lenalidomide pre-treated vs not pre-treated patients (46% vs 22% response rate): over 100%; cytogenetic complete responses (all study patients): three cytogenetic complete responses; HI-E Response Rate (95% Confidence Interval) (efficacy evaluable patients with prior Revlimid (lenalidomide) treatment: Yes, N=13, listed as ezatiostat hydrochloride): about 46%; complete cytogenetic response in del 5q minus patients (four patients enrolled with del 5q minus, one responder had failed prior Revlimid): two had a complete cytogenetic response; change in odds for a HI-E response with prior DMTI treatment (logistic regression analysis, p=0.023): five-fold decrease; patients achieving significant RBC transfusion reduction (no prior Revlimid): 45%; duration of complete remission following discontinuation of therapy (one patient (Quddus et al.)): more than 12 months; patients achieving significant RBC transfusion reduction (prior Revlimid): 45%
